Literature values as cited in patent US20080131525A1, “Therapeutic Nutrient Compositions Or Combinations And Methods Of Their Use” (priority 2004, published 2008).
Residues, ends and D or L forms follow the SMILES beside them.

Details: human, in vivo

## C[C@H](N)C(=O)N[C@@H](CCC(N)=O)C(=O)O [ala-gln, N(2)-L-alanyl-L-glutamine] (H-Ala-Gln-OH)
  calculated distribution volume: equivalent to that of the extracellular compartment
  dipeptide in plasma after the end of infusion: no longer detectable in plasma
  dipeptide in urine: no ala-gln was detected in urine
  half-life: 2.4 to 3.8 min
  plasma clearance rate: 1.92 L/min
24 mg/kg
  dipeptide in plasma over the infusion period: only trace quantities
iv
  hydrolysis after intravenous infusion: rapidly hydrolysed
  tolerability: well tolerated
